Data as given in PMC12867150, “A fungi-derived cyclic peptide enhances Th9-mediated antitumor immunity by targeting ZAP70 and SREBP1” (The Journal of Clinical Investigation, 2025).
Values joined by “and” are separate entries in the source; they are usually repeats but may differ in a detail not shown here. Equal entries are not always repeated.

Key:
Format in all cases: cell-based, mouse
[1] = system: Th9 cells; assay: IL-9+ Th9 cells with oleic acid (S8I-J); details: OA 50 μM
Text: LXR-α binding site ChREBP binding site USF1 binding site […] 2.1 1.8 2.1 […] 1.9 […] 20 20 0 […] + OA ✱✱✱✱ MIGR1 M Ctrl + OAEpA […] SREBP1 Ctrl SREBP1EpA ✱✱✱✱ ✱✱✱ 3 2 1 0 TNF-α MIGR1 SREBP1 […] SREBP1EpA Figure S8. EpA-associated modulation of lipid metabolism and its impact on Figure S8 Th9 cell function. (A-C) GSEA of RNA-seq data showing intracellular sterol transport (A), sterol transfer activity (B), and long-chain fatty acid transport (C) pathways in control and EpA-treated Th9 cells. […] (K and L) Flow-cytometric analysis of IL-9 expression in Th9 cells transduced with either control (MIGR1) or SREBP1- […]

[2] = system: TNF-α in Th9 cells; assay: Flow cytometry of TNF-α in Th9 cells in vitro (Figure 3F, 5I, 7C, S8M-N); details: for TNF (flow cytometric quantification): Figure 5I, single agent, individual replicates, (n = 5); for TNF-α expression: MEK/ERK blockade, even with EpA, result in words
Protocol: (§1) Naive CD4^+ T cells were isolated from the spleens of C57BL/6J or CD45.1^+ OT-II mice using the MojoSort Mouse CD4 Naive T Cell Isolation Kit (BioLegend, catalog 480040), following the manufacturer’s protocol. Purified cells were cultured in RPMI-1640 medium supplemented with 10% FBS, 1% penicillin-streptomycin, and 0.1% β-mercaptoethanol (Gibco, catalog 21985023).
(§2) T cell polarization was initiated under plate-bound anti-CD3 (2 μg/mL, clone 17A2, BioXCell, catalog BE0002) and soluble anti-CD28 (1 μg/mL, clone 37.51, BioXCell, catalog BE0015-1) stimulation, with the addition of cytokines and neutralizing antibodies specific to each subset. For Th9 cells, these included IL-4 (10 ng/mL, Peprotech, catalog 400-04), TGF-β (1 ng/mL, EPOTO Biotech, catalog HF-2021), anti–IL-12 (5 μg/mL, clone C17.8, BioXCell, catalog BE0051), and anti–IFN-γ (10 μg/mL, clone XMG1.2, BioXCell, catalog BE0055); for Th1 cells, these included IL-12 (10 ng/mL, GenScript, catalog Z03211-50) and anti–IL-4 (5 μg/mL, clone 11B11, BioXCell, catalog BE0045); for Th2 cells, these included IL-4 (50 ng/mL), anti–IFN-γ (20 μg /mL), anti–IL-12 (5 μg/mL), Th17 cells: IL-6 (20 ng/mL, EPOTO Biotech, catalog MF-1006), TGF-β (1 ng/mL), IL-1β (10 ng/mL, Peprotech, catalog AF-211-11B), anti–IFN-γ (10 μg/mL), anti–IL-12 (5 μg/mL), and anti–IL-4 (5 μg/mL); and for Tregs, these included TGF-β (3 ng/mL). After 3 days of initial culture, cells were either collected for downstream assays or continued in extended culture with refreshed cytokines to maintain lineage commitment.
(§3) Details regarding staining panels (human and mouse), reagents (including clones and catalog numbers), acquisition settings, compensation/controls, and analysis procedures are provided in Supplemental Methods.
(§4) BioLegend, Cat. No. 422301 or Mouse TruStain FcX™, BioLegend, Cat. No. 101319) for 10 minutes at 4°C. For surface marker detection, cells were stained with fluorochrome-conjugated monoclonal antibodies in 96-well V-bottom plates and incubated on ice for 30 minutes. After staining, cells were washed twice and resuspended in FACS buffer for analysis.
(§5) Prior to intracellular cytokine staining, cells were restimulated for 4 hours with PMA (Absin, Cat. No. abs9107), ionomycin (Sigma-Aldrich, Cat. No. I0634), and brefeldin A (MedChemExpress, Cat. No. HY-16592). For intracellular cytokine staining, cells were first surface-stained as described above, then fixed and permeabilized using the BD Cytofix/Cytoperm™ kit (BD Biosciences, Cat. No. 554714) according to the manufacturer ’s protocol. Intracellular proteins were stained with directly conjugated antibodies targeting IL-9, IL-17a, IL-4, IFN-γ, TNF-α, FOXP3, p-ZAP70, Perforin, and […]
(§6) Antibodies used for mouse samples included those against IL-9 (PE, clone RM9A4, Biolegend, Cat. No. 514104), IFN-γ (PE, clone XMG1.2, Biolegend, Cat. No.
(§7) Cat. No. 103138), CD4 (APC/Cy7, clone E-AB-F1353UJ, Elabscience, Cat. No.
(§8) AF18028), CD8α (PerCP/Cy5.5, clone E-AB-F1104UJ, Elabscience, Cat. No. […]
(§9) clone E-AB-F1187UH, Elabscience, Cat. No. AF19854), TNF-α (BV421, clone MP6-XT22, Biolegend, Cat. No. 506328), FOXP3 (PE, clone FJK-16s, eBioscience, Cat. No.
(§10) Perforin (APC, clone S16009A, Biolegend, Cat. No. 154303) and Granzyme B (APC, […]
(§11) clone QA16A02, Biolegend, Cat. No. 372203). […]

[3] = system: PD-1 on Th9 cells; assay: Flow cytometry of PD-1 on Th9 cells in vitro (Figure 5K, 7E, S3D); details: for PD1 (flow cytometric quantification): Figure 5K, single agent, individual replicates, (n = 5); for PD-1 expression: MEK/ERK blockade, even with EpA, result in words
Protocol: as §1, §2, §3, §4, §5, §6, §7, §8, §9, §10, §11

[4] = system: CD69 on Th9 cells; assay: Flow cytometry of CD69 on Th9 cells in vitro (Figure 5J, 7D); details: for CD69 (flow cytometric quantification): Figure 5J, single agent, individual replicates, (n = 5); for CD69 expression: MEK/ERK blockade, even with EpA, result in words
Protocol: as §1, §2, §3, §4, §5, §6, §7, §8, §9, §10, §11

[5] = system: mitochondria of Th9 cells; assay: Flow cytometry with MitoTracker Deep Red (Figure 4M, 5L, 7F, 7J); details: Figure 5L, single agent, individual replicates, (n = 3)
Protocol: […] Cells were incubated with the respective dyes, washed, and subjected to flow cytometry or fluorescence microscopy analysis. For ultrastructural assessment, mitochondrial number and diameter were quantified from high-resolution transmission electron microscopy (TEM) images using ImageJ software.

[6] = system: Th9 cells; assay: IL-9+ Th9 cells with MEK or ERK inhibition (Figure 5H); details: for IL-9 (flow cytometric quantification): Figure 5H, single agent, individual replicates, (n = 5); for IL-9 production: trametinib 10 nM, temuterkib 100 nM, result in words
Protocol: (A) Identification and ranking of EpA-interacting proteins by affinity pulldown and LC-MS/MS, ordered by in silico binding energy predictions. […] (E) Flow-cytometric analysis of phosphorylated ZAP70 in Th9 cells 10 minutes after TCR activation (mean ± SEM, n = 3). (F) Pathway enrichment analysis of RNA-seq data showing MAPK/ERK-related pathways in EpA-treated Th9 cells. (G) Immunoblot analysis of total and phosphorylated MEK1/2 and ERK1/2 in control and EpA-treated Th9 cells. (H–L) Functional consequences of MEK or ERK inhibition in EpA-treated Th9 cells. […] Data in H–K are shown as mean ± SEM (n = 5) and in L as mean ± SEM (n = 3). Statistical significance was determined using 1-way ANOVA followed by Tukey’s test (E, H–L). *P < 0.05, **P < 0.01, ***P < 0.001, ****P < 0.0001.
as §2
The following pharmacological inhibitors were used at the indicated final concentrations: trametinib (MEK1/2 inhibitor; Selleck, catalog S4484) at 10 nM; temuterkib (ERK1/2 inhibitor; MCE, catalog HY-101494) at 100 nM; and fatostatin hydrobromide (SREBP inhibitor; MCE, catalog HY-14452A) at 5 μM. Dead cells were detected using Fixable Viability Dye eFluor 780 (eBioscience, catalog 65-0865).

Structure (SMILES)	Th9 polarization with oleic acid ([1]; result in words)	IL-9 gate number ([1]; representative flow plot, Figure S8I, EpA 10 μM)	TNF (flow cytometric quantification) ([2]; listed as ERKin)	TNF-α expression [2]	PD1 (flow cytometric quantification) ([3]; listed as ERKin)	PD-1 expression [3]	CD69 (flow cytometric quantification) ([4]; listed as ERKin)	CD69 expression [4]	Mito tracker (flow cytometric quantification) ([5]; listed as ERKin)	IL-9 (flow cytometric quantification) ([6]; listed as ERKin)	IL-9 production [6]	TNF (flow cytometric quantification) ([2]; listed as MEKin)	PD1 (flow cytometric quantification) ([3]; listed as MEKin)	CD69 (flow cytometric quantification) ([4]; listed as MEKin)	Mito tracker (flow cytometric quantification) ([5]; listed as MEKin)	IL-9 (flow cytometric quantification) ([6]; listed as MEKin)
CCCCCCCC/C=C\CCCCCCCC(=O)O [oleic acid]	antagonizes Th9 polarization	0.8	–	–	–	–	–	–	–	–	–	–	–	–	–	–
Cn1nccc1Nc1nccc(-c2cc3c(s2)C(C)(C)N(CCN2CCOCC2)C3=O)n1 [temuterkib, reference compound]	–	–	1577 and 1578 and 1574 and 1552 and 1651	significantly reduced	218 and 220 and 219 and 229 and 222	significantly reduced	21.9 and 20.8 and 21.6 (2×) and 21.7	significantly reduced	1115 (2×) and 1113	0.84 and 0.88 and 0.8 and 0.91 and 1	almost completely abrogated IL-9 production	–	–	–	–	–
CC(=O)Nc1cccc(-n2c(=O)n(C3CC3)c(=O)c3c(Nc4ccc(I)cc4F)n(C)c(=O)c(C)c32)c1 [trametinib, reference compound]	–	–	–	significantly reduced	–	significantly reduced	–	significantly reduced	–	–	almost completely abrogated IL-9 production	1461 and 1480 and 1452 (2×) and 1443	177 and 192 and 187 (2×) and 180	19.1 and 22.5 and 21.5 and 19.6 and 18.9	942 and 929 and 920	0.7 and 0.66 and 0.89 and 0.62 and 0.69
